Data set [1] in a line: Half life in 0.1 M sodium phosphate buffer at 50 ug/ml at pH 4.5. It counts as physicochemical.
The nature of data set [2]: Half life in 0.1 M sodium phosphate buffer at 50 ug/ml at pH 6.5. Format: physicochemical.
Data set [3] in a line: Half life in 0.1 M sodium phosphate buffer at 50 ug/ml at pH 7.5. Format: physicochemical.
The nature of data set [4]: Drug absorption in Lai:COX (Standard)BR mouse assessed as compound remaining in gastrointestinal tract at 17 mg/kg, po after 20 mins. It counts as ADME, organism-based. On the set-up: dose 17 mg/kg, route oral. To be noted: read-out: Stability.
Data set [5] can be described thus: Drug absorption in Lai:COX (Standard)BR mouse assessed as compound remaining in gastrointestinal tract at 17 mg/kg, po after 40 mins. It counts as ADME, organism-based. On the set-up: dose 17 mg/kg, route oral. To be noted: read-out: Stability.
Data set [6] can be described thus: Drug excretion in Lai:COX (Standard)BR mouse urine at 17 mg/kg, po after 5 mins. Format: ADME, organism-based. Further details: dose 17 mg/kg, route oral; call rule not given here. The conditions noted are these: read-out: Drug excretion.
Data set [7] is described as follows: Drug excretion in Lai:COX (Standard)BR mouse urine at 17 mg/kg, po after 20 mins. The conditions noted are these: read-out: Drug excretion. On the set-up: dose 17 mg/kg, route oral. Format: ADME, organism-based.
Data set [8] is described as follows: Drug excretion in Lai:COX (Standard)BR mouse urine at 17 mg/kg, po after 40 mins. It counts as ADME, organism-based. Further details: dose 17 mg/kg, route oral. To be noted: read-out: Drug excretion.
The nature of data set [9]: Drug excretion in Lai:COX (Standard)BR mouse urine at 17 mg/kg, po after 60 mins. Format: ADME, organism-based. On the set-up: dose 17 mg/kg, route oral. To be noted: read-out: Drug excretion.
The nature of data set [10]: Drug excretion in Lai:COX (Standard)BR mouse urine at 17 mg/kg, po after 80 mins. It counts as ADME, organism-based. To be noted: read-out: Drug excretion. Further details: dose 17 mg/kg, route oral.
Data set [11] can be described thus: Drug excretion in Lai:COX (Standard)BR mouse urine at 17 mg/kg, po after 100 mins. Format: ADME, organism-based. On the set-up: dose 17 mg/kg, route oral. The conditions noted are these: read-out: Drug excretion.
Data set [12] in a line: Drug excretion in Lai:COX (Standard)BR mouse urine at 17 mg/kg, po after 120 mins. It counts as ADME, organism-based. On the set-up: dose 17 mg/kg, route oral. The conditions noted are these: read-out: Drug excretion.
The next data set relates to Staphylococcus aureus. Put plainly: Antibacterial activity against penicillin-resistant, coagulase-positive Staphylococcus aureus assessed as growth inhibition by gradient-plate assay. Format: functional.
The test system of the next data set is Shigella sp. Put plainly: Antibacterial activity against Shigella sp. assessed as growth inhibition by gradient-plate assay. It counts as functional.
The subject of another data set is Escherichia coli. Put plainly: Antibacterial activity against Escherichia coli assessed as growth inhibition by gradient-plate assay. Format: functional.
The subject of another data set is Klebsiella pneumoniae. Put plainly: Antibacterial activity against Klebsiella pneumoniae assessed as growth inhibition by gradient-plate assay. Format: functional.
The subject of a further data set is Klebsiella aerogenes. Put plainly: Antibacterial activity against Enterobacter aerogenes assessed as growth inhibition by gradient-plate assay. Format: functional.
Data set [13] in a line: Antibacterial activity against Salmonella heidelberg assessed as growth inhibition by gradient-plate assay. Format: functional, Salmonella enterica subsp. enterica serovar Heidelberg. To be noted: Salmonella enterica.
The test system of the next data set is Serratia marcescens. Put plainly: Antibacterial activity against Serratia marcescens assessed as growth inhibition by gradient-plate assay. Format: functional.
The nature of data set [14]: Drug excretion in Lai:COX (Standard)BR mouse urine at 17 mg/kg, sc after 5 mins. On the set-up: dose 17 mg/kg, route subcutaneous. To be noted: read-out: Drug excretion. It counts as ADME, organism-based.
Data set [15] is described as follows: Drug excretion in Lai:COX (Standard)BR mouse urine at 17 mg/kg, sc after 20 mins. On the set-up: dose 17 mg/kg, route subcutaneous. Format: ADME, organism-based. The conditions noted are these: read-out: Drug excretion.
The nature of data set [16]: Drug excretion in Lai:COX (Standard)BR mouse urine at 17 mg/kg, sc after 40 mins. The conditions noted are these: read-out: Drug excretion. Format: ADME, organism-based. On the set-up: dose 17 mg/kg, route subcutaneous.
Data set [17] is described as follows: Drug excretion in Lai:COX (Standard)BR mouse urine at 17 mg/kg, sc after 60 mins. Further details: dose 17 mg/kg, route subcutaneous. The conditions noted are these: read-out: Drug excretion. It counts as ADME, organism-based.
A short description of data set [18]: Drug excretion in Lai:COX (Standard)BR mouse urine at 17 mg/kg, sc after 80 mins. It counts as ADME, organism-based. Further details: dose 17 mg/kg, route subcutaneous. To be noted: read-out: Drug excretion.
The nature of data set [19]: Drug excretion in Lai:COX (Standard)BR mouse urine at 17 mg/kg, sc after 100 mins. Format: ADME, organism-based. Further details: dose 17 mg/kg, route subcutaneous. To be noted: read-out: Drug excretion.
Data set [20] in a line: Drug excretion in Lai:COX (Standard)BR mouse urine at 17 mg/kg, sc after 120 mins. To be noted: read-out: Drug excretion. On the set-up: dose 17 mg/kg, route subcutaneous. It counts as ADME, organism-based.
In a further data set the test system is Blood. Put plainly: Drug uptake in Lai:COX (Standard)BR mouse blood at 17 mg/kg, po. Further details: dose 17 mg/kg, route oral. The conditions noted are these: in vivo. Format: ADME, organism-based.

≈ marks a conversion by molar mass, not a printed value.

On to `Cc1nnc(SCC2=C(C(=O)OCOC(=O)C(C)(C)C)N3C(=O)[C@@H](NC(=O)[C@H](N)c4ccccc4)[C@H]3SC2)s1.Cl`, for which the half-life at 50 ug/ml worked out at 32 h in data set [1], 45 min in [2] and 25 min in data set [3]. For the same molecule, the remaining at 20 min in [4] amounted to 40.5%. Further, in data set [5], the remaining at 40 min came out at 25%. The dose excreted at 5 min in [6] turned out to be 3.6%. Further, the dose excreted at 20 min in data set [7] was 20.8%. Further, the dose excreted at 40 min in data set [8] was determined as 38.9%. In [9], the dose excreted at 1 h stood at 43.2%. For the same molecule, the dose excreted at 80 min in data set [10] turned out to be 48.2%. The dose excreted at 100 min in data set [11] stood at 41.8%. The dose excreted at 2 h in data set [12] stood at 41.5%.
`CC1=C(C(=O)O)N2C(=O)[C@@H](NC(=O)[C@H](N)c3ccccc3)[C@H]2SC1` [CEPHALEXIN ANHYDROUS]: the MIC with Staphylococcus aureus worked out at 4.5 µg/mL (≈ 13 µM); in the data set on Shigella sp. it was 9 µg/mL (≈ 25.9 µM); with Escherichia coli it was 8.5 µg/mL (≈ 24.5 µM); in the data set on Klebsiella pneumoniae, 7 µg/mL (≈ 20.1 µM); in the data set with Klebsiella aerogenes it was 6.8 µg/mL (≈ 19.6 µM); in [13] it was 5.5 µg/mL (≈ 15.8 µM). The MIC with Serratia marcescens came to 140 µg/mL (≈ 403 µM).
For the molecule `Cc1nnc(SCC2=C(C(=O)O)N3C(=O)[C@@H](NC(=O)[C@H](N)c4ccccc4)[C@H]3SC2)s1`, the MIC was 0.7 µg/mL (≈ 1.47 µM) with Staphylococcus aureus; 1 µg/mL (≈ 2.09 µM) in the data set with Shigella sp.; 1 µg/mL (≈ 2.09 µM) in the data set with Escherichia coli; 0.6 µg/mL (≈ 1.26 µM) in the data set on Klebsiella pneumoniae; 0.8 µg/mL (≈ 1.68 µM) with Klebsiella aerogenes; 1 µg/mL (≈ 2.09 µM) in data set [13]. Also, the minimum inhibitory concentration (MIC) in the data set on Serratia marcescens stood at 26.5 µg/mL (≈ 55.5 µM). In addition, the half-life at 50 ug/ml came to 47 h in [1], 76 min in data set [2] and 54 min in data set [3]. The remaining at 20 min in data set [4] was found to be 81.2%. Also, in data set [5], the remaining at 40 min came out at 67.5%. Moreover, in data set [14], the dose excreted at 5 min is 2.8%. Also, the values for the dose excreted at 20 min in [15] and in [7] were 25% and 2.8%, respectively. The dose excreted at 40 min in data set [16] came out at 46.5%; in [8], 8.4%. The dose excreted at 1 h in data set [17] was 50.7%; in data set [9], 13.2%. In addition, the figures for the dose excreted at 80 min in data set [18] and in data set [10] were 56.7% and 17.5%, respectively. The dose excreted at 100 min in data set [19] was determined as 54.1%; in data set [11] it was 22.4%. Besides, the figures for the dose excreted at 2 h in data set [20] and in [12] were 54.1% and 14.1%, respectively. Moreover, in the data set on Blood, the Drug uptake result is recorded as “Active”.
Take `CC(=O)OCOC(=O)C1=C(CSc2nnc(C)s2)CS[C@@H]2[C@H](NC(=O)[C@H](N)c3ccccc3)C(=O)N12.Cl`: the half-life at 50 ug/ml in [1] came to 27 h; in [2], 60 min; in [3], 25 min. Further, the remaining at 20 min in data set [4] turned out to be 39.1%. For the same molecule, in data set [5], the remaining at 40 min is 31.5%. The dose excreted at 20 min in data set [7] worked out at 20.4%. The dose excreted at 40 min in [8] stood at 32.5%. In data set [9], the dose excreted at 1 h is 33.1%. In [10], the dose excreted at 80 min stood at 36.1%. For the same molecule, the dose excreted at 100 min in data set [11] came out at 38.3%. Moreover, the dose excreted at 2 h in data set [12] is 36.8%.
`Cc1nnc(SCC2=C(C(=O)OC3OC(=O)c4ccccc43)N3C(=O)[C@@H](NC(=O)[C@H](N)c4ccccc4)[C@H]3SC2)s1.Cl` (stereo not given in full): the half-life at 50 ug/ml in [2] was 25 min; in data set [3], 15 min. The remaining at 20 min in data set [4] stood at 59%. Also, the remaining at 40 min in data set [5] is 35%. In addition, in data set [7], the dose excreted at 20 min turned out to be 8.3%. In addition, the dose excreted at 40 min in [8] amounted to 22.1%. The dose excreted at 1 h in [9] is 35%. Also, the dose excreted at 80 min in data set [10] came to 30.5%. In addition, the dose excreted at 100 min in [11] came to 34%.
